Experimental data taken from patent publication US20050100891A1, “Gene expression profile for KSHV infection and methods for treating same” (priority 2000, published 2005).
Entries after “also recorded” stand apart in the source; their conditions may differ.

Experiments:
KSHV-infected DMVEC [1] = assay: XTT-based proliferation assay, response to exogenous SCF; type: cell-based, human
Protocol: (§1) Proliferation of mock and KSHV-infected DMVEC, and the SCLC line HTB-172, was quantitated using an XTT-based assay. Cells were added to Primaria 96 well trays (Becton-Dickinson) at 1×104 or 5×10^4 cells/well. […] XTT (Roche, Molecular Biochemicals, Indianapolis, Ind.) was added 48 hours later according to the manufacturers instructions. Absorbance was read after 4 to 6 hours on a microplate reader. The HTB-172 line was obtained from the American Type Culture Collection (ATCC, Rockville, Md.).
Mock- and KSHV-infected DMVEC were cultured in growth factor depleted medium in the absence and presence of recombinant SCF and proliferation was measured using an XTT-based dye reduction assay^(112).

human Jurkat T cell line = assay: Proliferation of Jurkat T cell line in response to exogenous IL-2; type: cell-based
KSHV-infected DMVEC [2] = assay: Transformation assay (focus formation, disorganized growth) in post-confluent culture; type: cell-based, human
Protocol: (§2) To promote a transformed phenotype, KSHV-infected DMVEC were cultured post-confluency in 35 mm Primaria culture dishes. […] Cells were examined daily for evidence of phenotypic change using a phase-contrast microscope and results recorded photographically.
(§3) To directly test whether KSHV-induction of c-Kit is necessary for virus-induced transformation, the consequence of inhibiting c-Kit signaling in KSHV-transformed DMVEC was evaluated.
In this approach, a dominant negative c-Kit protein lacking the cytoplasmic ATP-binding and phosphotransferase domains necessary for c-Kit signaling (Ad/c-KitDN) was expressed in KSHV-infected cells using the adenovirus delivery system outlined above.

Uninfected DMVEC = test system: Uninfected DMVEC
Protocol: as §2, §3

SCLC cell lines = conditions: via inhibition of c-Kit activity; cited from earlier work
ORF 65 (lytic gene) = assay: RT-PCR of late (lytic) gene ORF 65 in PMA-induced KSHV-infected DMVEC; type: cell-based; conditions: for late gene (ORF 65) expression: compound 1 hour before PMA, 48 hours, concentration not given
Protocol: (§4) KSHV genes ORF 64 and K12 (kaposin) were used as reverse transcriptase PCR (RT-PCR) templates as described previously^(43). ORF 65 sequences were amplified with primers 5-[…] (SEQ ID NO: 5) and 5′-[…] (SEQ ID NO: 6). Cellular genes (HPRT, GAPDH, or -actin) were amplified from each sample as a control for cDNA synthesis. PCR products were visualized following electrophoresis on agarose-ethidium bromide gels.
(§5) Cells were treated with inhibitory compounds or peptides for one hour and lytic replication was induced by PMA treatment for 48 hours. Ganciclovir was used as control compound for inhibition of KSHV-replication and late gene expression^(10). After 48 hours, cells were harvested and expression of the latent gene K12 as well as the late gene ORF 65 was analyzed by RT-PCR. For control, expression of cellular genes α-actin or HPRT was monitored. […] However, both Ht31 and Haloperidol inhibited late gene expression, but not latent gene expression. Since both inhibitors potentially interfere with PKC signaling, we examined whether Ht31 or Haloperidol would inhibit the PMA-mediated induction of immediate early genes. […] In addition, the peptide Ht-31 inhibits the association between A kinase anchoring proteins (AKAPs) and PKA (21, 64). […] Therefore we conclude that the signal transduction pathways regulated by the type I sigma receptor and AKAPs are required for lytic progression of KSHV.
There is no specific inhibitor of Gravin identified, however the Ht-31 peptide derived from the PKA R-II binding domain of the human thyroid AKAP inhibits the AKAP/PKA interactions in vivo and in vitro ^(21, 64). A stearated version of this peptide is membrane permeable and can block the AKAP/PKA interaction in tissue culture. A requirement for PKA signaling can be inferred from the up-regulation of Gravin, and to further investigate the requirement for the AKAP/PKA interaction for KSHV late gene expression, infected and uninfected cells were treated with stearated Ht-31 at two concentrations (FIG. 7B). […] A stearated control peptide that is unable to interact with PKA, Ht-31P, had no effect on late gene expression (FIG. 7B, lanes 4-5). […] It is not possible to conclude whether the inhibitory effect of Ht-3 1 occurs through Gravin or any other AKAP, since Ht-31 inhibits a wide range of AKAP/PKA interactions.
(§6) The type I Sigma receptor is antagonized by the antipsychotic drug Haloperidol^(66). To investigate the requirement of Sigma receptor function for late gene expression, cells were treated with 5 μM Haloperidol for 1 hour prior to PMA addition. […] The inhibition of late gene expression was more complete with Haloperidol than with Ganciclovir (FIG. 7D, lanes 5-6). In contrast, the purine […] phosphorylase inhibitor 8-aminoguanosine (8-AMG) had no effect on viral gene expression (FIG. 7D, lane 4).

K12 (latent gene) = assay: RT-PCR of latent gene K12 in PMA-induced KSHV-infected DMVEC; type: cell-based
Protocol: as §4, §5, §6

immediate early gene K3 = assay: PMA-mediated induction of immediate early gene K3; type: cell-based, KSHV
Epstein-Barr Virus (EBV) = conditions: cited from earlier work
mock-infected DMVEC = assay: XTT-based proliferation assay, response to exogenous SCF; type: cell-based, human
Protocol: as §1
To examine whether KSHV-induced up-regulation of c-Kit had functional consequences, we tested whether the mitogenic response of DMVEC to exogenous SCF was enhanced following KSHV infection. Mock- and KSHV-infected DMVEC were cultured in growth factor depleted medium in the absence and presence of recombinant SCF and proliferation was measured using an XTT-based dye reduction assay^(112). […] In mock-infected cultures, the increase over basal proliferation in the […] of recombinant SCF was never more than 40%, while proliferation of KSHV-infected DMVEC was increased by as much as 85%. During KS disease, an enhanced capacity of KSHV-infected endothelial cells to respond to SCF produced by adjacent endothelial cells, or by macrophages and mast cells infiltrating the KS lesion, would promote more rapid growth of virus infected cells.

[3] = 5 μM Haloperidol for 1 hour prior to PMA addition

Cc1ccc(NC(=O)c2ccc(CN3CCN(C)CC3)cc2)cc1Nc1nccc(-c2cccnc2)n1 [STI 571]
proliferative response of KSHV-infected DMVEC to exogenous SCF (KSHV-infected DMVEC [1]; 1 μM dose, SCF 50 ng/ml, XTT assay): completely inhibited
effect on capacity to proliferate in response to exogenous IL-2 (human Jurkat T cell line): no effect
focus formation of KSHV-transformed DMVEC (KSHV-infected DMVEC [2]; STI 571 0.01-10 μM, 5 days, organized monolayer re-established): inhibited
drug concentration at which the effect on the transformed phenotype was complete (KSHV-infected DMVEC [2]; dose-dependent): 1 µM
effect on cell morphology or viability (Uninfected DMVEC): no effect
non-specific cytotoxicity (trypan blue exclusion) (DMVEC): not due to non-specific cytotoxicity
growth of SCLC cell lines in vitro (SCLC cell lines): inhibit

Ht-31: peptide derived from the PKA R-II binding domain of human thyroid AKAP; inhibits AKAP/PKA interactions (WKNVLQGGESTKERFENSNIGTA)
ORF 65 expression (ORF 65 (lytic gene); 5 μM Ht-31, PMA induction): efficiently repressed
ORF 65 expression (ORF 65 (lytic gene); 25 μM, PMA induction): inhibited; also recorded: efficiently repressed
late gene (ORF 65) expression (ORF 65 (lytic gene)): inhibited
level of K12 RNA (K12 (latent gene); 25 μM): without affecting
induction of the immediate early gene K3 (immediate early gene K3): neither compound prevented induction

O=C(CCCN1CCC(O)(c2ccc(Cl)cc2)CC1)c1ccc(F)cc1 [Haloperidol]
ORF 65 expression (ORF 65 (lytic gene); [3]): significantly reduced
completeness of inhibition of late gene expression compared with Ganciclovir (ORF 65 (lytic gene); 5 μM Haloperidol vs 25 μM Ganciclovir): more complete
late gene (ORF 65) expression (ORF 65 (lytic gene)): inhibited
expression of the latent K12 gene (K12 (latent gene); [3]): did not affect
induction of the immediate early gene K3 (immediate early gene K3): neither compound prevented induction
replication of Epstein-Barr Virus in tissue culture (Epstein-Barr Virus (EBV)): inhibit

Nc1nc(O)c2ncn(COC(CO)CO)c2n1 [Ganciclovir]
late gene (ORF 65) expression (ORF 65 (lytic gene)): inhibited
latent gene (K12) expression (K12 (latent gene); compound 1 hour before PMA, 48 hours, concentration not given): did not interfere

Nc1nc2c(nc(N)n2[C@@H]2O[C@H](CO)[C@@H](O)[C@H]2O)c(=O)[nH]1 [8-aminoguanosine]
viral gene expression (K12, ORF 65) (ORF 65 (lytic gene); 10 μM 8-aminoguanosine): no effect

SCF: recombinant stem cell factor, ligand of c-Kit
SCF concentration of maximal dose-dependent proliferation (KSHV-infected DMVEC [1]; KSHV-infected DMVEC): 50 to 100 ng/mL
increase over basal proliferation in the absence of recombinant SCF (KSHV-infected DMVEC [1]; KSHV-infected DMVEC, exogenous SCF 20-100 ng/ml): ≤ 85%
SCF concentration of maximal dose-dependent proliferation (mock-infected DMVEC; mock-infected DMVEC): 50 to 100 ng/mL
increase over basal proliferation in the absence of recombinant SCF (mock-infected DMVEC; mock-infected cultures, exogenous SCF 20-100 ng/ml): ≤ 40%
